Source: patent US20050130989A1, “N-arylheteroaromatic products compositions containing them and use thereof” (Aventis Pharma S. A., priority 2003, published 2005)
Counter-ions that a name gives are not always drawn.

Tests used:
tubulin = target: T1, tubulin (Sus scrofa, UniProt P02550+P02554); assay: Evaluation of the inhibition of tubulin polymerization (turbidimetry); type: biochemical, pig; conditions: tubulin 10 μm (1 mg/ml), 37° C., turbidity at 350 nm; concentration that inhibits the rate of polymerization by 50%; read-out: Inhibition of tubulin polymerization IC 50 (μm)
T1 construct: Tubulin is purified from pig brain according to published methods; from tissue; host or cells: pig brain
T1 sequence (P02550 whole entry): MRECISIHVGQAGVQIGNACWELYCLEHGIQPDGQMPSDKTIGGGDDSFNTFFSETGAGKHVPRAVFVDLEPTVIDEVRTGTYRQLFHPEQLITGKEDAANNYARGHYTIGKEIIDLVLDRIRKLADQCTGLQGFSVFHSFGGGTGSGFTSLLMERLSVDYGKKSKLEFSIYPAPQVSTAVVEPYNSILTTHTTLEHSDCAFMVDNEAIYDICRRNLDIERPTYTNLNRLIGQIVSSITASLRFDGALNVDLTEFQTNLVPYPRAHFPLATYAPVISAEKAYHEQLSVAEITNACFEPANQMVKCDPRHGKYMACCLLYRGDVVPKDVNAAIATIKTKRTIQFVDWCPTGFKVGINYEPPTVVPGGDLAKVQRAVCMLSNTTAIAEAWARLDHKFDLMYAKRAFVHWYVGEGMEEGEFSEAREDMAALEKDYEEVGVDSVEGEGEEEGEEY
T1 sequence (P02554 whole entry): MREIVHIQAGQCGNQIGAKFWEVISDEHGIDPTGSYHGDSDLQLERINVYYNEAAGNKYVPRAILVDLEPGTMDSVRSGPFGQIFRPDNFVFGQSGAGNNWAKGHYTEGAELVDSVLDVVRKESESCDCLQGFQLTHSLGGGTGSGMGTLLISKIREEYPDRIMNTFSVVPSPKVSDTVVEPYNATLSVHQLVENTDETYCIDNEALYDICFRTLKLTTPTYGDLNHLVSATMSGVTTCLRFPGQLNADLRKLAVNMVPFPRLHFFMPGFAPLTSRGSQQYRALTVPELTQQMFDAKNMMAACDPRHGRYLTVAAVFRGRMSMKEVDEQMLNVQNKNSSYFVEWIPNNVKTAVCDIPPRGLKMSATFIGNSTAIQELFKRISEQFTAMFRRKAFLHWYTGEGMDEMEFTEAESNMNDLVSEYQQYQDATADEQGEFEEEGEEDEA
Description: Tubulin is purified from pig brain according to published methods (Shelanski et al., 1973, Proc. Natl. Acad. Sci. USA, 70, 765-768. Weingarten et al., 1975, Proc. Natl. Acad. Sci. USA, 72, 1858-1862). Briefly, the brains are ground and centrifuged in an extraction buffer. The tubulin contained in the supernatant of the extract undergoes two successive cycles of polymerization at 37° C. and depolymerization at 4° C., before being separated from the MAPs (Microtubule Associated Proteins) by chromatography on a phosphocellulose P11 column (Whatman). The tubulin thus isolated is more than 95% pure. It is stored in a buffer known as RB/2 30% glycerol, the composition of which is 50 mM MES-NaOH [2-(N-morpholino)ethanesulfonic acid], pH 6.8; 0.25 mM MgCl2; 0.5 mM EGTA; 30% glycerol (v/v), 0.2 mM GTP (guanosine-5′-triphosphate).
The polymerization of tubulin to microtubules is monitored by turbidimetry as follows: the tubulin is adjusted to a concentration of 10 μm (1 mg/ml) in RB/2 30% glycerol buffer to which 1 mM GTP and 6 mM MgCl2 are added. The polymerization is triggered by an increase in temperature from 6° C. to 37° C. in a cuvette with an optical path length of 1 cm, placed in a UVIKON 931 spectrophotometer (Kontron) equipped with a thermostatically maintained cuvette holder. The increase in the turbidity of the solution is monitored at 350 nm.
The products are dissolved at 10 mM in DMSO and added at variable concentrations (0.5 to 10 μm) to the tubulin solution before polymerization. The IC50 value is defined as the concentration of product that inhibits the rate of polymerization by 50%.

HCT116 cells = assay: Inhibition of proliferation of the human colon tumor line HCT116 ([14C]-thymidine incorporation); type: cell-based; conditions: Homo sapiens, HCT-116, 48 h, 48 hours at 37° C., read-out: Inhibition of HCT116 proliferation IC 50 (μm)
Description: The proliferation of HCT116 cells is evaluated by measuring the incorporation of [^14C]-thymidine in the following manner. The HCT 116 cells (obtained from the ATCC) are cultured in a DMEM medium (Gibco) containing 10% fetal calf serum and antibiotics (1% penicillin, 1% streptomycin). To perform the proliferation test, the cells are inoculated in cytostar 96-well microplates (Amersham), at a rate of 5000 cells per well. [^14C]-thymidine (0.1 μCi/well) and the products to be evaluated are then added. Variable concentrations of products up to 10 μm are used; the DMSO (solvent used to dissolve the products) should not exceed 0.5% in the medium. 48 hours after incubation at 37° C., the radioactivity incorporated into the cells is measured by counting the plate in a TRI-LUX counter (Wallac). The IC50 is defined as the concentration of product that reduces the radioactivity by 50% compared with an untreated control. A product whose IC50 is less than 3 μm is considered cytotoxic.

Row | IC50 (tubulin) [µM] | IC50 (HCT116 cells) [µM] | Structure (SMILES)
1 | 2.7 | 0.127 | Cc1cc(C(=O)N2CCN(c3ccccc3C)CC2)n(-c2cccc(Cl)c2)n1 [3/67]
2 | 3 | 1.85 | Cc1cc(C(=O)N2CCN(c3cccc4ccccc34)CC2)n(-c2cccc(F)c2)n1 [3/20]
3 | 3.42 | 1.1 | COc1cc(OC)cc(N2CCN(C(=O)c3cc(-c4ccc(C(F)(F)F)cc4)nn3-c3ccccc3)CC2)c1 [Example E89, [4-(3,5-Dimethoxyphenyl)piperazin-1-yl][2-phenyl-5-(4-trifluoromethylphenyl)-2H-pyrazol-3-yl]methanone]
4 | 1.3 | 0.0108 | O=Cc1cc(C(=O)N2CCN(c3cccc(Cl)c3)CC2)n(-c2ccccc2)n1 [Example E70, 5-[4-(3-Chlorophenyl)piperazine-1-carbonyl]-1-phenyl-1H-pyrazole-3-carboxaldehyde]
5 | 5 | 0.239 | Cc1cc(C(=O)N2CCN(c3ccc(F)cc3)CC2)n(-c2cccc(Cl)c2)n1 [3/24]
6 | 1.3 | 0.073 | Cc1cc(C(=O)N2CCN(c3ccc(Cl)c(Cl)c3)CC2)n(-c2cccc(Cl)c2)n1 [3/65]
7 | 0.8 | 0.003 | Cc1cc(C(=O)N2CCN(c3cccc([N+](=O)[O-])c3)CC2)n(-c2ccccc2)n1 [Example E5, [4-(3-Nitrophenyl)piperazin-1-yl](5-methyl-2-phenyl-2H-pyrazol-3-yl)-methanone]
8 | 20 | 0.939 | Cc1cc(C(=O)N2CCN(c3cccc(Cl)c3)CC2)n(-c2cnccn2)n1 [Example E36, [4-(3-Chlorophenyl)piperazin-1-yl](5-methyl-2-pyrazin-2-yl-2H-pyrazol-3-yl)-methanone]
9 | 6.5 | 0.841 | Cc1cc(C(=O)N2CCN(c3cccc(C(F)(F)F)c3)CC2)n(-c2ccccc2)n1 [3/8]
10 | 5 | 0.118 | Cc1cccc(-n2nc(C)cc2C(=O)N2CCN(c3ccccc3C)CC2)c1 [3/48]
11 | 2 | 0.0898 | NC(=O)c1cccc(N2CCN(C(=O)c3cccn3-c3ccccc3)CC2)c1 [Example E57, 3-[4-(1-Phenyl-1H-pyrrole-2-carbonyl)piperazin-1-yl]benzamide]
12 | 0.8 | 0.00017 | COc1cc(OC)cc(N2CCN(C(=O)c3cc(/C=N\O)nn3-c3ccccc3)CC2)c1 [Example E95, 5-[4-(3,5-Dimethoxyphenyl)piperazine-1-carbonyl]-1-phenyl-1H-pyrazole-3-carboxaldehyde oxime Z]
13 | 1.2 | 0.075 | Cc1cccc(-n2nc(C)cc2C(=O)N2CCN(c3ccc(Cl)c(Cl)c3)CC2)c1 [3/113]
14 | 7 | 0.157 | CCOc1ccccc1N1CCN(C(=O)c2cc(C)nn2-c2cccc(F)c2)CC1 [3/98]
15 | 5 | 0.569 | Cc1cc(C(=O)N2CCN(c3ccccc3)CC2)n(-c2ccc(F)cc2)n1 [3/101]
16 | 2 | 0.0377 | Cc1cc(C(=O)N2CCN(c3cccc(Cl)c3)CC2)n(-c2nccs2)n1 [Example E37, [4-(3-Chlorophenyl)piperazin-1-yl](5-methyl-2-thiazol-2-yl-2H-pyrazol-3-yl)-methanone]
17 | 1.5 | 0.0061 | Cc1cccc(N2CCN(C(=O)c3cc(C)nn3-c3cccc(C)c3)CC2)c1 [3/50]
18 | 3.1 | 0.513 | Cc1cc(C(=O)N2CCN(c3cccc(NCc4ccccc4)c3)CC2)n(-c2ccccc2)n1 [Example E32, [4-(3-Phenylmethylaminophenyl)piperazin-1-yl](5-methyl-2-phenyl-2H-pyrazol-3-yl)methanone hydrochloride]
19 | 18 | 0.347 | Cc1cc(C(=O)N2CCN(c3ccc(Cl)cc3)CC2)n(-c2cccc(Cl)c2)n1 [3/69]
20 | 6 | 0.224 | Cc1cccc(N2CCN(C(=O)c3cc(C)nn3-c3ccccc3F)CC2)c1 [3/16]
21 | 3 | 0.073 | COc1ccccc1N1CCN(C(=O)c2cc(C)nn2-c2cccc(C)c2)CC1 [3/45]
22 | 4.5 | 3.94 | CSc1ccccc1N1CCN(C(=O)c2cc(C)nn2-c2ccc(F)cc2)CC1 [3/58]
23 | 12.5 | 0.932 | CCc1ccccc1N1CCN(C(=O)c2cc(C)nn2-c2cccc(OC)c2)CC1 [3/136]
